According to US12516054B2, “Pyrazolo[1,5-a]pyridine derivatives, preparation method therefor and use thereof” (SHANGHAI DAIDAI INVESTMENT CONSULTING CO., LTD, priority 2019, dated 2026):

Legend:
[1] = molecular target: GST-hRET kinase (658-1114) (Homo sapiens (Human), UniProt P07949); assay: Inhibitory activity on RET enzyme (HTRF KinEASE-TK); assay type: biochemical; details: 0.5 nM RET kinase, 10 μM ATP, read-out: IC50 for inhibition on RET enzyme activity
Procedure: 2. Reagent Preparation • (1) 1× enzyme reaction buffer: 5× enzyme reaction buffer was diluted with ultrapure water (UPW) at 4:1, and then 25 nM SEB was added. • (2) 5×RET kinase: RET kinase was diluted with 1× enzyme reaction buffer to 2.5 nM. • (3) 5×ATP: ATP was diluted with 1× enzyme reaction buffer to 50 μM. • (4) 5× substrate: TK substrate-biotin was diluted with 1× enzyme reaction buffer to 2,500 nM. • (5) 2.5× compound: The highest final concentration was 2,500 nm, 3-fold gradient dilution was conducted to obtain 10 dilution points, and a final DMSO concentration was 0.4%. • (6) 4× Steptavidin-XL665: Steptavidin-XL665 was diluted with 1× enzyme reaction buffer to […]. 3. Experimental Process • (1) 5×RET kinase was added to a 384-well plate at 2 μl/well (final concentration of 0.5 nM), and a blank group (enzyme reaction buffer) was set as a negative control. • (2) A 2.5× compound solution was added at 4 μl/well, and then the plate was incubated at room temperature for 30 min. A DMSO group was set as a positive control. • (3) 5× substrate (at 2 μl/well, final concentration: 500 nM) and 5×ATP (at 2 μl/well, final concentration: 10 μM) were added to start a reaction, and the reaction was conducted at room temperature for 30 min. • (4) TK Antibody-Cryptate (at 5 μl/well) and 4× Steptavidin-XL665 (at 5 μl/well, final concentration: […]) were added, and the plate was incubated at room temperature for 60 min. • (5) An HTRF signal was read on Envision. 4. Data Analysis
The dosage effect (IC50) of the compound with analyzed using the Graph Pad prism software.

TT cells = assay: Inhibition of proliferation of tumor cells with abnormal RET (TT cells), CellTiter-Glo; assay type: cell-based; details: 192 h, TT cells (human MTC, RET C634W), incubated 8 d, read-out: IC50 for inhibition on TT cell proliferation
Procedure: The following method was used to determine the inhibitory activity of the preferred compound of the present disclosure on the proliferation of TT cells in vitro. TT cells were a human medullary thyroid cancer (MTC) cell line, including the RET C634W mutation. The cell line was purchased from the American ATCC (Cat. No. ATCC® CRL-1803). The cells were cultivated at 37° C. and 5% CO2 with the Ham's F-12K (Kaighn's) medium (purchased from Thermofisher, Gibco, Cat. No. 21127022) that was supplemented with 10% fetal bovine serum (FBS, purchased from Thermofisher, Gibco, Cat. No. 12483-020), 1× Glutamax (purchased from Thermofisher, Gibco, Cat. No. 35050061), 1× non-essential amino acids (purchased from Thermofisher, Gibco, Cat. No. 11140050), and 1× Pen/Strep antibiotics (purchased from Thermofisher, Gibco, Cat. No. 15140122). Cell viability was determined using CellTiter-Glo® Luminescent Cell Viability Assay (Cat. No. G7573) of Promega.
Brief description of an experimental method: The day before the formal experiment, the cells at the logarithmic growth phase were digested with trypsin (purchased from Thermofisher, Gibco, Cat. No. 25300054), then an appropriate volume of the medium was added to terminate the trypsin reaction, and a resulting mixture was centrifuged at a speed of 1,000 rpm; a resulting supernatant was removed, and fresh medium was added to prepare a cell suspension; and 50 µL of the cell suspension was added to a 96-well cell culture plate (purchased from Corning, Cat. No. 3904) with a cell density of 6,000 cells/well, and then the cell culture plate was incubated overnight at 37° C. and 5% CO2. […] After the incubation was completed, 50 μL of a CellTiter-Glo reagent was added to each well, a resulting mixture was thoroughly shaken and then incubated at room temperature for 10 min in the dark, and then a signal of each well was read on the Envision microplate reader (Perkin Elmer). […]

Sequence of GST-hRET kinase (658-1114) (P07949 658-1114): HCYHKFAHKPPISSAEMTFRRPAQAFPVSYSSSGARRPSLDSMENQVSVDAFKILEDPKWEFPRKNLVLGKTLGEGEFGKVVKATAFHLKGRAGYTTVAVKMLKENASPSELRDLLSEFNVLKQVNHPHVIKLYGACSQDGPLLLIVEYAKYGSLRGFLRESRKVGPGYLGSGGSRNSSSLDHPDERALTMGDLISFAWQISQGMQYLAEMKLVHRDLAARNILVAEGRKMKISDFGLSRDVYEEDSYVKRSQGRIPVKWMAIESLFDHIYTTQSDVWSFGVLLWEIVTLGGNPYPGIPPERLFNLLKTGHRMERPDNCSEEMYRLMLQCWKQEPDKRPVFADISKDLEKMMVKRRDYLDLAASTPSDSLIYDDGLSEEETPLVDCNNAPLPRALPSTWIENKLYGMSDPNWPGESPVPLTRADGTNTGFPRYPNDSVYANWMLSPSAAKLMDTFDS

Question: `COc1ccc(CN2CC=C(c3ccc(-c4cc(OCC(C)(C)O)cn5ncc(C#N)c45)cn3)CC2)cn1` [Compound 2, 6-(2-hydroxy-2-methylpropoxy)-4-(1′-((6-methoxypyridin-3-yl)methyl)-1′,2′,3′,6′-tetrahydro-[2,4′-bipyridin]-5-yl)pyrazolo[1,5-a]pyridine-3-carbonitrile] was tested. Which IC50 [1] did it give?
Answer: 25.4 nM

Question: What does the source list for `COc1ccc(CN2C3CC2CN(c2ccc(-c4cc(CCC(C)(C)O)cn5ncc(C#N)c45)cn2)C3)cn1` [Compound 10, 6-(3-hydroxy-3-methylbutyl)-4-(6-(6-((6-methoxypyridin-3-yl)methyl)-3,6-diazabicyclo[3.1.1]heptan-3-yl)pyridin-3-yl)pyrazolo[1,5-a]pyridine-3-carbonitrile]?
Answer: IC50 (TT cells): 68.6 nM; IC50 [1]: 5.6 nM

Question: `COc1ccc(CN2CC=C(c3ccc(-c4cc(-c5cnn(C)c5)cn5ncc(C#N)c45)cn3)CC2)cn1` [Compound 1, 4-(1′-((6-methoxypyridin-3-yl)methyl)-1′,2′,3′,6′-tetrahydro-[2,4′-bipyridin]-5-yl)-6-(1-methyl-1H-pyrazol-4-yl)pyrazolo[1,5-a]pyridine-3-carbonitrile] was tested. Which IC50 (TT cells) did it give?
Answer: 28.9 nM

Question: What about the IC50 [1] of the same compound?
Answer: 23.1 nM

Question: `COc1ccc(C(=O)N2CC=C(c3ccc(-c4cc(OCC(C)(C)O)cn5ncc(C#N)c45)cn3)CC2)cn1` [Compound 8, 6-(2-hydroxy-2-methylpropoxy)-4-(1′-(6-methoxynicotinoyl)-1′,2′,3′,6′-tetrahydro-[2,4′-bipyridin]-5-yl)pyrazolo[1,5-a]pyridine-3-carbonitrile] was tested. Which IC50 (TT cells) did it give?
Answer: 87.8 nM
